Laboratory results reported in patent publication US11583516B2, “Dash inhibitors, and uses related thereto” (Trustees of Tufts College, priority 2016, dated 2023).
Like-named read-outs stand apart in the source and are kept apart here.

What was measured:
MV4;11 cells = experiment: Cell line drug sensitivity (CellTiter-Glo); assay type: cell-based; settings: MV4;11, AML M5; 48 h; read-out: IC50
AML cell lines = experiment: AML cell line sensitivity, summary over the panel; assay type: cell-based; settings: most of these AML cell lines
Protocol: (§1) SET-2, RS4;11, and SKM-1 cells were purchased from DSMZ. HL-60, MV4;11, OCI-AML2, NB4, MOLM-13, NOMO-1, DAOY, HEL, IMR-5, K562, Kasumi-1, ONS-76, RDES-1, and TC-71 cells were a gift from Alex Kentsis and verified using STR genotyping (Genetica). […] MCF-7, Jurkat, THP-1, U937, HL-60, MV4;11, OCI-AML2, NB4, MOLM-13, NOMO-1, HEL, K562, SET-2, RS4;11, SKM-1 and Kasumi-1 were grown in RPMI-1640 medium with 10% FBS. All cells were grown at 37° C. in a 5% CO2 incubator. Cell lines were tested for mycoplasma using the MycoAlert Mycoplasma Detection Kit (Lonza).
(§2) Cells were plated (2000 cells/well) in white, 384-well clear bottom plates using an EL406 Microplate Washer/Dispenser (BioTek) in 25 μL final volume of media. Compounds were added using a pintool (CyBio) and cells were incubated for 48 h at 37° C. Assay plates were then removed from the incubator and allowed to equilibrate to room temperature on the bench top before addition of 10 μL of CellTiter-Glo reagent (Promega) according to the manufacturer's instructions. Assay plates were shaken on an orbital shaker for 2 minutes and incubated at room temperature on the bench top for 10 minutes. Luminescence was then read using a Cytation 5 Cell Imaging Multi-Mode Reader (BioTek). (FIG. 6)

RS4;11 cells = experiment: Cell line drug sensitivity (CellTiter-Glo); assay type: cell-based; settings: RS4;11, AML/B-ALL; 48 h; read-out: IC50
NB4 cells = experiment: Cell line drug sensitivity (CellTiter-Glo); assay type: cell-based; settings: NB4, AML/APL M3; 48 h; read-out: IC50
THP-1 cells = experiment: Cell line drug sensitivity (CellTiter-Glo); assay type: cell-based; settings: THP-1, AML M5; 48 h; read-out: IC50
Protocol: as §1, §2

Kasumi-1 cells = experiment: Cell line drug sensitivity (CellTiter-Glo); assay type: cell-based; settings: Kasumi-1, AML M2; 48 h; read-out: IC50
Protocol: as §1, §2

IMR-5 cells = experiment: Cell line drug sensitivity (CellTiter-Glo); assay type: cell-based; settings: IMR-5, Neuroblastoma; 48 h; read-out: IC50
Protocol: as §1, §2

DAOY cells = experiment: Cell line drug sensitivity (CellTiter-Glo); assay type: cell-based; settings: DAOY, Medulloblastoma; 48 h; read-out: IC50
Protocol: as §1, §2

SKM-1 cells = experiment: Cell line drug sensitivity (CellTiter-Glo); assay type: cell-based; settings: SKM-1, AML M5; 48 h; read-out: IC50
Protocol: as §1, §2

KG-1 cells = experiment: Cell line drug sensitivity (CellTiter-Glo); assay type: cell-based; settings: KG-1, AML M0; 48 h; read-out: IC50
Protocol: as §1, §2

Jurkat cells = experiment: Cell line drug sensitivity (CellTiter-Glo); assay type: cell-based; settings: T-ALL, 48 h, read-out: IC50
Protocol: as §1, §2

RDES-1 cells = experiment: Cell line drug sensitivity (CellTiter-Glo); assay type: cell-based; settings: RDES-1, Ewing's sarcoma; 48 h; read-out: IC50
Protocol: as §1, §2

HEL cells = experiment: Cell line drug sensitivity (CellTiter-Glo); assay type: cell-based; settings: AML/Erythroleukemis M6, 48 h, read-out: IC50
Protocol: as §1, §2

NOMO-1 cells = experiment: Cell line drug sensitivity (CellTiter-Glo); assay type: cell-based; settings: NOMO-1, AML M5; 48 h; read-out: IC50
Protocol: as §1, §2

ONS-76 cells = experiment: Cell line drug sensitivity (CellTiter-Glo); assay type: cell-based; settings: ONS-76, Medulloblastoma; 48 h; read-out: IC50
Protocol: as §1, §2

MOLM-13 cells = experiment: Cell line drug sensitivity (CellTiter-Glo); assay type: cell-based; settings: MOLM-13, AML M5; 48 h; read-out: IC50
Protocol: as §1, §2

K562 cells = experiment: Cell line drug sensitivity (CellTiter-Glo); assay type: cell-based; settings: K562, CML/Erythroleukemia; 48 h; read-out: IC50
Protocol: as §1, §2

MCF7 cells = experiment: Cell line drug sensitivity (CellTiter-Glo); assay type: cell-based; settings: MCF7, Breast; 48 h; read-out: IC50
Protocol: as §1, §2

TC-71 cells = experiment: Cell line drug sensitivity (CellTiter-Glo); assay type: cell-based; settings: TC-71, Ewing's sarcoma; 48 h; read-out: IC50
Protocol: as §1, §2

HT-1080 cells = experiment: Cell line drug sensitivity (CellTiter-Glo); assay type: cell-based; settings: HT-1080, Fibrosarcoma; 48 h; read-out: IC50
Protocol: as §1, §2

SET-2 cells = experiment: Cell line drug sensitivity (CellTiter-Glo); assay type: cell-based; settings: SET-2, AML/MPN; 48 h; read-out: IC50
Protocol: as §1, §2

U937 cells = experiment: Cell line drug sensitivity (CellTiter-Glo); assay type: cell-based; settings: U937, AML/histiocytic lymphoma M5; 48 h; read-out: IC50
Protocol: as §1, §2

OCI-AML3 cells = experiment: Cell line drug sensitivity (CellTiter-Glo); assay type: cell-based; settings: OCI-AML3, AML M4; 48 h; read-out: IC50
Protocol: as §1, §2

HL-60 cells = experiment: Cell line drug sensitivity (CellTiter-Glo); assay type: cell-based; settings: HL-60, AML M2; 48 h; read-out: IC50
Protocol: as §1, §2

CT26 cells = experiment: CT26 cell viability; assay type: cell-based
MV4;11 Luc-Neo = experiment: Pyroptosis IC50 in cells; assay type: cell-based
[1] = Maximum tolerated dose study (single dose); assay type: in vivo, Sprague Dawley rats; settings: with Pyrrophenone or AACOCF3, based on serum drug levels
From the text: Bars show the MTD single dose in SD rats prior to seeing animal death. […] See also FIG. 33 for a similar comparison using cPLA2 inhibitors instead of COX inhibitors.
Bars show the MTD single dose in SD rats prior to seeing animal death. Based on serum drug levels, the addition of a cPLA2 inhibitors to the I-DASH inhibitor increases that MTD dose by at least 20-fold.
Bars show the MTD single dose in SD rats prior to seeing animal death.

G-CSF = experiment: Serum cytokine induction in mice (G-CSF screen); assay type: in vivo, BALB/c mice
From the text: No. MKC00B) • IL-18 (R&D Systems, Cat. […] Systems, Cat. No. […])

RAW 264.7 WT cells = experiment: Pyroptosis IC50 in cells; assay type: cell-based
MB49 tumor = experiment: MB49 efficacy studies; assay type: in vivo, C57BL/6 mice
CT26 tumor = assay type: in vivo; settings: CT26 model
cancer = settings: in the clinic; cited from earlier work
THP-1 sgGFP = experiment: Pyroptosis IC50 in cells; assay type: cell-based

## CC(C)[C@H](N)C(=O)N1CCC[C@H]1B(O)O [ARI-2054, Valine-boroProline]
MV4;11 cells
  IC50: 0.078 µM
AML cell lines
  IC50: > 0.1 µM
RS4;11 cells
  IC50: 0.147 µM
NB4 cells
  IC50: 0.1 µM
THP-1 cells
  IC50: 0.206 µM
Kasumi-1 cells
  IC50: > 60 µM
IMR-5 cells
  IC50: > 60 µM
DAOY cells
  IC50: > 60 µM
SKM-1 cells
  IC50: 0.044 µM
KG-1 cells
  IC50: 0.02 µM
Jurkat cells
  IC50: > 60 µM
RDES-1 cells
  IC50: > 60 µM
HEL cells
  IC50: > 60 µM
NOMO-1 cells
  IC50: 0.16 µM
ONS-76 cells
  IC50: > 60 µM
MOLM-13 cells
  IC50: 0.12 µM
K562 cells
  IC50: > 60 µM
MCF7 cells
  IC50: > 60 µM
TC-71 cells
  IC50: > 60 µM
HT-1080 cells
  IC50: > 60 µM
SET-2 cells
  IC50: 0.006 µM
U937 cells
  IC50: > 60 µM
OCI-AML3 cells
  IC50: 0.08 µM
HL-60 cells
  IC50: 0.115 µM
CT26 cells
  EC50: > 1000 µM
MV4;11 Luc-Neo
  IC50: 0.06 µM
[1]
  Increase of MTD dose by addition of a cPLA2 inhibitor: at least 20 fold
G-CSF; 20 μg/animal PO
  Average [G-CSF] at 6 hrs: 55000 pg/mL
G-CSF; 20 μg/animal SC
  Average [G-CSF] at 6 hrs: 97000 pg/mL
RAW 264.7 WT cells
  IC50: 0.098 µM
MB49 tumor; 20 microgram dose of Val-boroPro plus celecoxib
  Tumor regression in combination with celecoxib: facilitated the achievement of tumor regression
MB49 tumor; Val-boroPro plus celecoxib
  Antitumor activity in combination with celecoxib: increased the antitumor activity of Val-boroPro markedly (statistically significantly) and in a dose-dependent manner
CT26 tumor; 10 micrograms
  Inhibition of tumor growth (average): about 30%
CT26 tumor; 20 micrograms
  Inhibition of tumor growth (average): ~80%
cancer
  Clinical response: some partial and complete responses
  Clinical toxicity: discontinued due to dose-limiting toxicity
THP-1 sgGFP
  IC50: 0.168 µM
